The record followed here is US9079964B2, “Immunoassay for cyclopropylindole based synthetic cannabinoids, metabolites and derivatives thereof” (Randox Laboratories Limited, priority 2013, dated 2015).

The test system of assay [1] is antiserum raised to Immunogen I. In words: UR144/XLR11 Synthetic Cannabinoids (Spice) ELISA, antiserum raised to Immunogen I (third bleed). The note with it: Table 4, negative response at this concentration. Format: binding, sheep. On the procedure: (§1) The wells of an enhanced binding 96 well polystyrene microtiter plate were coated with IgG fraction of antiserum raised to Immunogen I or II, diluted in 10 mM Tris, pH 8.5 (125 μl/well). The appropriate antibody coating dilution was determined using standard ELISA checkerboard techniques. The plate was incubated overnight at 4° C., washed 4 times over 10 minutes with Tris buffered saline containing Tween20 (TBST) and tapped dry. Standard solutions (UR-144 N-pentanoic acid) were applied at 0, 0.625, 1.25, 2.5, 5, 10, 20 and 40 ng/ml and 50 μl of each was added to the appropriate wells. 75 μl of conjugate (appropriate hapten-HRP) diluted in Tris buffer (pH 7.2) containing EDTA, D-mannitol, sucrose, thimerosol and BSA, was added to each of the wells. The appropriate dilution of conjugate was also determined using standard ELISA checkerboard techniques. The plate was incubated at 25° C. for 1 hour. Excess unbound conjugate was removed by washing 6 times over a ten minute period with TBST. 125 μl of tetramethylbenzidine (TMB) substrate solution was added to each well of the plate that was then incubated for 20 minutes in the dark at room temperature. The reaction was terminated by addition of 125 μl of 0.2 M H2SO4 to each well. The absorbance was then measured at 450 nm using a microtiter plate reader. The data are inputted to a computer program called ‘KC Junior’ (Biotek). It gives a 4 parameter fit curve and allows the calculation of concentrations between the standard runs. This program is used to calculate the IC50 values by dividing the 0 ng/ml optical density (OD) value by 2 and obtaining the concentration value from the curve for this OD.
(§2) Cross-reactivity was calculated according to the following formula: % CR=IC50, UR-144 N-pentanoic acid/IC50, cross reactant×100 Where % CR is the percentage cross-reactivity, IC50, UR-144 N-pentanoic acid is the concentration of UR-144 N-pentanoic acid that causes 50% displacement of signal and IC50, cross reactant is the concentration of the cannabinoid/metabolite/selected molecule that causes 50% displacement of signal.
A further assay was carried out in accordance with the protocol described in Example 9 using Immunogen I.
In general terms: In an ELISA, binding on a coated surface is turned into a signal by an enzyme label.

Assay [2] shares this test system. The experiment in a line: Competitive ELISA with IgG fraction of antiserum raised to Immunogen I (second bleed) and hapten 1-HRP detecting agent. It counts as binding, sheep. The note with it: Table 2; for % B/BO: cross-reactant at 100 ng/ml (single level); for IC50 / % Cross-reactivity (CR): cross-reactant tested at 100 ng/ml; for % Cross-reactivity (CR): relative to UR-144 N-pentanoic acid. On the procedure: as §1, §2
In order to determine the specificity of the competitive ELISAs, standard solutions of a range of structurally related synthetic cannabinoids and their metabolites were prepared in TBST (Tris-Buffered Saline and Tween 20). Using the calibration curves generated and employing a single level of cross reactants, these were used to determine the cross-reactivity of the immunoassays with these substances.

In the case of `CCCCCn1c(O)c(C(=O)c2cccc3ccccc23)c2ccccc21` [2-OH JWH-018], the “Concentration of compounds that elicit a negative response” value (“Concentration” for short) in assay [1] is 100 ng/mL.
Regarding `CCCCn1c(O)c(C(=O)c2cccc3ccccc23)c2ccccc21` [2-OH JWH-073], the “Concentration” value in assay [1] is 100 ng/mL.
Take `CCCCCn1cc(C(=O)c2cccc3ccccc23)c2c(O)cccc21` [4-OH JWH-018]: in assay [1], the “Concentration” value was 100 ng/mL.
As to `CCCCn1cc(C(=O)c2cccc3ccccc23)c2c(O)cccc21` [4-OH JWH-073], the “Concentration” value in assay [1] turned out to be 100 ng/mL.
Turning to `CCCCn1cc(C(=O)c2cccc3ccccc23)c2cc(O)ccc21` [5-OH JWH-073], the “Concentration” value in assay [1] came out at 100 ng/mL.
For the molecule `CCCCn1cc(C(=O)c2cccc3ccccc23)c2ccc(O)cc21` [6-OH JWH-073], in assay [1], the “Concentration” value is listed as 100 ng/mL.
`CCCCCn1cc(C(=O)c2cccc3ccccc23)c2cccc(O)c21` [7-OH JWH-018]: in assay [1], the “Concentration” value is 100 ng/mL.
For `CCCCn1cc(C(=O)c2cccc3ccccc23)c2cccc(O)c21` [7-OH JWH-073], the “Concentration” value in assay [1] was 100 ng/mL.
For the molecule `O=C(c1cn(CCCCCO)c2ccccc12)C12CC3CC(CC(C3)C1)C2` [AB001 N-pentanol], the “Concentration” value in assay [1] came to 100 ng/mL.
Same read-out and setting: to `O=C(O)CCCCn1cc(C(=O)C23CC4CC(CC(C4)C2)C3)c2ccccc21` [AB001N-pentanoic acid] belongs 100 ng/mL.
Still for that read-out and setting: the same measure for `O=C(NC12CC3CC(CC(C3)C1)C2)c1nn(CCCCCF)c2ccccc12` [AKB48 N (5-fluoropentyl) analog]: 100 ng/mL.
The term IC50 denotes the midpoint of a concentration-inhibition curve. Regarding `CN1CCCCC1Cn1cc(C(=O)c2cccc3ccccc23)c2ccccc21` (stereo not shown) [AM1220], in assay [2], the “% B/BO” value is recorded as 73.59%, the half-inhibitory concentration (IC50) is above 0.1 µg/mL and the “% Cross-reactivity (CR)” value is below 3.0%.
In the case of `O=C(O)CCCCn1cc(C(=O)c2cccc3ccccc23)c2ccccc21` [JWH-018 N (carboxybutyl) metabolite], in assay [2], the “% B/BO” value is listed as 89.14%, the half-inhibitory concentration (IC50) was above 0.1 µg/mL and the “% Cross-reactivity (CR)” value is below 3.0%.
Turning to `CC(O)CCCn1cc(C(=O)c2cccc3ccccc23)c2ccccc21` (stereo not shown) [JWH-018 N-(4-hydroxypentyl) metabolite, 1-(4-hydroxypentyl)-1H-indol-3-yl(napthalen-1-yl)-methanone], the “Concentration” value in assay [1] stood at 100 ng/mL.
Take `O=C(O)CCCCn1cc(-c2cccc3ccccc23)c2ccccc21` [JWH-018 N-pentanoic acid metabolite, 5-(3-(1-naphthyl)-1H-indol-1-yl)pentanoic acid]: the “Concentration” value in assay [1] is recorded as 100 ng/mL.
Turning to `CCCCCn1cc(C(=O)NC23CC4CC(CC(C4)C2)C3)c2ccccc21` [JWH-018 adamantyl carboxamide], in assay [1], the “Concentration” value is listed as 10 ng/mL.
As to `CCCCCn1cc(C(=O)C23CC4CC(CC(C4)C2)C3)c2ccccc21` [JWH-018 adamantyl], the “Concentration” value in assay [1] came to 100 ng/mL.
In the case of `CCCCCn1cc(C(=O)c2cccc3ccccc23)c2ccccc21` [JWH-018], in assay [2], the “% B/BO” value is 87.89%, the half-inhibitory concentration (IC50) is above 0.1 µg/mL and the “% Cross-reactivity (CR)” value is on record as below 3.0%.
Consider `CCCCCCn1cc(C(=O)c2cccc3ccccc23)c2cc(O)ccc21` [JWH-019 5-hydroxyindole metabolite], for which, in assay [1], the “Concentration” value worked out at 100 ng/mL.
Take `CCCCCCn1cc(C(=O)c2cccc3ccccc23)c2ccccc21` [JWH-019]: in assay [2], the “% B/BO” value is reported as 87.30%, the “IC50” value is above 0.1 µg/mL and the “% Cross-reactivity (CR)” value is given as below 3.0%.
With `CCCCCn1cc(C(=O)c2ccc(CC)c3ccccc23)c2ccccc21` [JWH-210], in assay [2], the “% B/BO” value turned out to be 95.89%, the “IC50” value was above 0.1 µg/mL and the “% Cross-reactivity (CR)” value is on record as below 3.0%.
